According to US9763442B2, “In situ generation of peroxycarboxylic acids at alkaline pH, and methods of use thereof” (priority 2010, dated 2017):

What was measured:
[1] = Coupling of precipitated aqueous POOA by surfactants/hydrotropes; type: physicochemical; details: 1000 ppm POOA in DI Water
Description: A variety of surfactants were analyzed for coupling and/or dispersion stabilizing of a peroxycarboxylic acid composition generated according to the methods of the invention. In particular, a peroxyoctanoic acid (POOA) composition in deionized water produced according to the invention was analyzed for coupling and/or dispersion stabilization using the dispersing agents set forth in Table 14A.
Given the very limited water solubility of POOA in its protonated form, acidification of the alkaline perhydrolysis solutions of the same causes immediate precipitation and rapid phase separation. In this example various surfactants and hydrotropes were evaluated for their ability to couple the POOA. In Table 14A it can be seen that the most efficient agents for coupling an already precipitated solution of POOA were samples I and II.

[2] = Dispersion stability of acidified POOA solutions with dispersing agents; type: physicochemical; details: acidified POOA solution, 10,000 ppm H2SO4; oil sheen = fail
Description: The SLS, LAS and SOA dispersing agents were then further examined for efficacy in stabilizing and/or dispersing in 1% or lower sulfuric acid solutions. […] Solution 13 was made as 1 through 12 with the addition of 50 mL of 5 grain hard water to the aliquot of alkaline reaction solution followed by swirling with the surface aliquot and then additional 50 mL of 5 grain hard water, followed within about 5 seconds by 50 mL of 5 grain 2% sulfuric acid and swirled. Solution 14 was made by direct addition of 1% sulfuric acid (5 grain) without pre-dilution, but after moments of swirling with SLS aliquot. All concentrations are shown in ppm. […] The appearance of an oil sheen was regarded as a pass or fail.

**Q.** With `CCCCC(CC)COC(=O)CC(C(=O)OCC(CC)CCCC)S(=O)(=O)[O-].[Na+]` (centres unmarked) [X, Sodium dioctyl Sulfosuccinates] as the molecule, how does the “Amount of (B) Required for Coupling” value [1] read?
**A.** The value was greater than 2.0 g/200 g aq POOA.

**Q.** Which “Amount of (B) Required for Coupling” value [1] does the source give for `CCCCCCCCCCCCOS(=O)(=O)[O-].[Na+]` [I, Sodium Lauryl Sulfate] here?
**A.** Its value is 0.64 g/200 g aq POOA.

**Q.** For `CCCCCCCCS(=O)(=O)[O-].[Na+]` [VII, Sodium octanesulfonate], which “Amount of (B) Required for Coupling” value [1] is on record?
**A.** The value was 6.60 g/200 g aq POOA.

**Q.** With Sodium Lauryl Ether Sulfate [III] as the molecule, how does the “Amount of (B) Required for Coupling” value [1] read?
**A.** Its value is greater than 0.94 g/200 g aq POOA.

**Q.** With Linear Aryl Sulfonate [II] as the molecule, how does the “oil sheen at 23 h” value [2] read?
**A.** The value was “minimal surface oil”.

**Q.** And the “Amount of (B) Required for Coupling” value [1]?
**A.** The value was 0.65 g/200 g aq POOA.

**Q.** What about the “Amount of (B) Required for Coupling” value ([1]; listed as LAS) of the same molecule?
**A.** The value was 0.64 g/200 g aq POOA.

**Q.** Which “Amount of (B) Required for Coupling” value [1] does the source give for Alkyl Polyglycosides [VI] here?
**A.** Its value is 2.46 g/200 g aq POOA.
